Drawing on the NIST ThermoML archive (doi:10.1021/je900609f), this text covers Normal melting temperature for one compound.

Numbers after ± are expanded uncertainties.

For the data set the following is noted: Crystal; visual observation.

`C=CC(=O)Nc1cc(F)c(Br)c(F)c1` [N-(4-bromo-3,5-difluorophenyl)acrylamide]: the Normal melting temperature worked out at 182 ± 0.7 °C.
